In patent publication US8772304B2, “Benzimidazole inhibitors of leukotriene production” (Boehringer Ingelheim International GmbH, priority 2010, dated 2014):

Columns and labels:
[1] = tested on: biomarkers for myocardial infarction risk; conditions: clinical trial; cited from earlier work
proteinuria = conditions: clinical trial, human glomerulonephritis; cited from earlier work
[2] = tested on: synthesis of LTB4 in human whole blood; experiment: human whole blood LTB4 production inhibition assay; format: cell-based; conditions: heparinized human whole blood, calcimycin 20 μM stimulation, plasma LTB4; read-out: hWB IC50
Experimental: Compounds are additionally tested in a human whole blood assay to determine their ability to inhibit the synthesis of LTB4 in a cellular system. Compounds are combined with heparinized human whole blood and incubated for 15 minutes at 37° C. Calcimycin (20 μM final, prepared in phosphate-buffered saline, pH 7.4) is then added and the mixture is incubated for another 30 minutes at 37° C. The samples are centrifuged for 5 min at low speed (1500×g) and the plasma layer is removed. Plasma LTB4 concentrations are then measured using an antibody-based homogenous time-resolved fluorescence method (CisBio, Bedford, Mass.).

[3] = biological target: recombinant human FLAP protein (Homo sapiens (Human), UniProt P20292); experiment: FLAP binding assay (Scintillation Proximity Assay, displacement of iodinated FLAP inhibitor); conditions: displacement of [125I]L-691,831; membranes of sf9 cells expressing recombinant human FLAP; read-out: hFLAP binding IC50
Experimental: Compounds are assessed for the ability to bind to FLAP in a binding assay that measures compound-specific displacement of an iodinated (^125I) FLAP inhibitor via a Scintillation Proximity Assay format (adapted from S. Charleson et al., Mol. Pharmacol., 1992, 41, 873-879).
Cell pellets produced from sf9 insect cells expressing recombinant human FLAP protein are resuspended in buffer A [15 mM Tris-HCl (pH 7.5), 2 mM MgCl2, 0.3 mM EDTA, 1 mM PMSF]. The cells are lysed with a Dounce homogenizer and the material is centrifuged at 10,000×g for 10 minutes. The supernatant is then collected and centrifuged at 100,000×g for 60 minutes. To prepare membrane protein for an assay, an aliquot of the 100,000×g pellet is resuspended in 1 ml of buffer A, Dounce homogenized, and finally subjected to polytron mixing (30 seconds). Membrane protein (25 μl, 5 μg) is mixed with WGA SPA beads (Amersham) and stirred for 1 h. […] (final concentrations: beads, 200 μg/well; protein, 5 μg/well; [^125I] probe, 0 08 nM/well (17 nCi/well). The plates are shaken for 2 h before reading on a Microbeta plate reader. Non-specific binding is determined by the addition of 10 μM cold L-691,831 compound.

atherosclerotic plaque [4] = conditions: infusion, ApoE−/−xCD4dnTβRII mice, treated for four weeks; cited from earlier work
atherosclerotic plaque [5] = conditions: oral dosing, apoE/LDL-R double knockout mice, high-fat diet from 2 to 6 months of age; cited from earlier work

recombinant human FLAP protein, sequence (P20292 whole entry): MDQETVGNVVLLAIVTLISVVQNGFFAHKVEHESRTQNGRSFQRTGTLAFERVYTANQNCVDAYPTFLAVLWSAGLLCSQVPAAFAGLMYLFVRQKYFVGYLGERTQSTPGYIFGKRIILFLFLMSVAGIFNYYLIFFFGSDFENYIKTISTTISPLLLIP

## O=C(O)[C@@H](c1ccc(OCc2ccc3ccccc3n2)cc1)C1CCCC1 [DG-031]
[1]
  effect on biomarkers for myocardial infarction risk: dose-dependent suppression of several biomarkers

## CC(C)(C)Sc1c(CC(C)(C)C(=O)O)n(Cc2ccc(Cl)cc2)c2ccc(OCc3ccc4ccccc4n3)cc12 [MK-591]
proteinuria
  effect on proteinuria: reduce proteinuria

## Cc1ncnn1-c1ccc(C#N)nc1-c1nc2cc(-c3cnc(N)nc3)ccc2n1C1(C)CCC1 [Example 6, 6-[5-(2-Amino-pyrimidin-5-yl)-1-(1-methyl-cyclobutyl)-1H-benzimidazol-2-yl]-5-(5-methyl-1,2,4-triazol-1-yl)-pyridine-2-carbonitrile]
[2]
  IC50: 894 nM
[3]
  IC50: 86 nM

## Cc1ncnn1-c1ncccc1-c1nc2cc(-c3cnc(N)nc3)ccc2n1C(C)(C)C [Example 24, 5-{1-tert-Butyl-2-[2-(5-methyl-1,2,4-triazol-1-yl)-pyridin-3-yl]-1H-benzimidazol-5-yl}-pyrimidin-2-ylamine]
[2]
  IC50: 242 nM
[3]
  IC50: 23 nM

## CC(C)c1ccc2c(c1)c(SC(C)(C)C)c(CC(C)(C)C(=O)O)n2Cc1ccc(Cl)cc1 [MK-886]
Atherosclerotic plaque [4]
  decrease in plaque area in the aortic root: ~40%
Atherosclerotic plaque [5]
  decrease in plaque coverage in the aorta: 56%
  decrease in plaque coverage in the aortic root: 43%
